The values that follow come from patent US20190359609A1, “BICYCLIC OGA INHIBITOR COMPOUNDS” (Janssen Pharmaceutica NV, priority 2016, published 2019).

Read-outs that look alike come from different tables or passages of the source.

Assay [1] addresses T1, recombinant human Meningioma Expressed Antigen 5 (MGEA5), also referred to as O-GlcNAcase (OGA) (Homo sapiens, UniProt O60502).
T1 construct: Full length OGA enzyme was purchased at OriGene (cat # TP322411); purchased OriGene TP322411
T1 sequence (O60502 1-916): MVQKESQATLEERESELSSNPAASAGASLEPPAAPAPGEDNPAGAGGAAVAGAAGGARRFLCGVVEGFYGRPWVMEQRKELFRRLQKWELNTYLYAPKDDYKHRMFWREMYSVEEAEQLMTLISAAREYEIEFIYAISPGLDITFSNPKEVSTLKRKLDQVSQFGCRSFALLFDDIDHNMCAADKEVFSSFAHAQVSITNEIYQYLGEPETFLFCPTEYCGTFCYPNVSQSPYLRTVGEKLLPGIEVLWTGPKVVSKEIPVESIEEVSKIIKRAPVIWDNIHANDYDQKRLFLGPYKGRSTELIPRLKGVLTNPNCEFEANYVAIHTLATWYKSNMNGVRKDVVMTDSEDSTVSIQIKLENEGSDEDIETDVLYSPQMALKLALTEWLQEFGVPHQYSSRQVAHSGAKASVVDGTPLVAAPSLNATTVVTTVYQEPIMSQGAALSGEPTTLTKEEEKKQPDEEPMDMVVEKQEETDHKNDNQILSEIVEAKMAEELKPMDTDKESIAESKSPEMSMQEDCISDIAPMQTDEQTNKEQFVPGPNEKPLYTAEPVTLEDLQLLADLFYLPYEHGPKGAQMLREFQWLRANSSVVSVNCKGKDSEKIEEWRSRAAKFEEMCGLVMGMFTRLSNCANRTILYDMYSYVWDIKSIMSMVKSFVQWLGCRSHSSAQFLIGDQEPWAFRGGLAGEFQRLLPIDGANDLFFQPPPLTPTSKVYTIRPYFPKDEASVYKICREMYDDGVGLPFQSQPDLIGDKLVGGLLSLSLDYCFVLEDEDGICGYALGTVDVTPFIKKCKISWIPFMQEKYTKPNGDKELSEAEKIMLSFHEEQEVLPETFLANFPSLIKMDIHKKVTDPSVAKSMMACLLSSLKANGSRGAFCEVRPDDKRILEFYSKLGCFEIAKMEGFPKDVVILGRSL
As to the kind of experiment: OGA biochemical assay: inhibition of FM-GlcNAc hydrolysis, fluorescence (protocol A 10 nM OGA, 1 h; protocol B 2 nM OGA, 6 h). An excerpt:
The assay is based on the inhibition of the hydrolysis of fluorescein mono-B-D-N-Acetyl-Glucosamine (FM-GlcNAc) (Mariappa et al. 2015, Biochem J 470:255) by the recombinant human Meningioma Expressed Antigen 5 (MGEA5), also referred to as 0-GlcNAcase (OGA). The hydrolysis FM-GlcNAc (Marker Gene technologies, cat # M1485) results in the formation of β-D-N-glucosamineacetate and fluorescein. The fluorescence of the latter can be measured at excitation wavelength 485 nm and emission wavelength 538 nm. An increase in enzyme activity results in an increase in fluorescence signal. Full length OGA enzyme was purchased at OriGene (cat # TP322411). The enzyme was stored in 25 mM Tris.HCl, pH 7.3, 100 mM glycine, 10% glycerol at −20° C. Thiamet G and GlcNAcStatin were tested as reference compounds (Yuzwa et al. 2008 Nature Chemical Biology 4:483; Yuzwa et al. 2012 Nature Chemical Biology 8:393). The assay was performed in 200 mM Citrate/phosphate buffer supplemented with 0.005% Tween-20. 35.6 g Na2HPO4 2 H2O (Sigma, # C0759) were dissolved in 1 L water to obtain a 200 mM solution. 19.2 g citric acid (Merck, #1.06580) was dissolved in 1 L water to obtain a 100 mM solution. pH of the sodiumphosphate solution was adjusted with the citric acid solution to 7.2. The buffer to stop the reaction consists of a 500 mM Carbonate buffer, pH 11.0. 734 mg FM-GlcNAc were dissolved in 5.48 mL DMSO to obtain a 250 mM solution and was stored at −20° C. OGA was used at a 10 nM (protocol A) or 2 nM (protocol B) concentration and FM-GlcNAc at a 100 uM final concentration. Dilutions were prepared in assay buffer.
50 nl of a compound dissolved in DMSO was dispensed on Black Proxiplate™ 384 Plus Assay plates (Perkin Elmer, #6008269) and 3 μl fl-OGA enzyme mix added subsequently. Plates were pre-incubated for 60 min at room temperature and then 2 μl FM-GlcNAc substrate mix added. […] Plates were briefly centrifuged for 1 min at 1000 rpm and incubate at room temperature for 1 h (10 nM OGA, protocol A) or 6 h (2 nM OGA, protocol B). To stop the reaction 5 μl STOP buffer were added and plates centrifuge again 1 min at 1000 rpm. Fluorescence was quantified in the Thermo Scientific Fluoroskan Ascent or the PerkinElmer EnVision with excitation wavelength 485 nm and emission wavelength 538 nm.
For analysis a best-fit curve is fitted by a minimum sum of squares method. From this an IC50 value and Hill coefficient was obtained. High control (no inhibitor) and low control (saturating concentrations of standard inhibitor) were used to define the minimum and maximum values.

For another assay, the target named is T2, OGA (Homo sapiens, UniProt O60502).
T2 construct: endogenous in cells; host or cells: HEK293 cells inducible for P301L mutant human Tau (2N4R)
T2 sequence (O60502 1-916): T1 sequence (O60502 1-916)
In words: OGA cellular assay: ICC detection of O-GlcNAcylated proteins in HEK293 cells inducible for P301L mutant human Tau. In kind it is cell-based. Conditions: 6 hours incubation; for EC50: read-out: Cellular hOGA, pEC50 (converted). As to the method: HEK293 cells inducible for P301L mutant human Tau (isoform 2N4R) were established at Janssen. Thiamet-G was used for both plate validation (high control) and as reference compound (reference EC50 assay validation). OGA inhibition is evaluated through the immunocytochemical (ICC) detection of O-GlcNAcylated proteins by the use of a monoclonal antibody (CTD110.6; Cell Signaling, #9875) detecting O-GlcNAcylated residues as previously described (Dorfmueller et al. 2010 Chemistry & biology, 17:1250).
Inhibition of OGA will result in an increase of 0-GlcNAcylated protein levels resulting in an increased signal in the experiment. Cell nuclei are stained with Hoechst to give a cell culture quality control and a rough estimate of immediate compounds toxicity, if any. ICC pictures are imaged with a Perkin Elmer Opera Phenix plate microscope and quantified with the provided software Perkin Elmer Harmony 4.1.
Cells were propagated in DMEM high Glucose (Sigma, #D5796) following standard procedures. 2 days before the cell assay cells are split, counted and seeded in Poly-D-Lysine (PDL) coated 96-wells (Greiner, #655946) plate at a cell density of 12,000 cells per cm^2 (4,000 cells per well) in 100 μl of Assay Medium (Low Glucose medium is used to reduce basal levels of GlcNAcylation) (Park et al. 2014 The Journal of biological chemistry 289:13519). At the day of compound test medium from assay plates was removed and replenished with 90 μl of fresh Assay Medium. 10 μl of compounds at a 10fold final concentration were added to the wells. Plates were centrifuged shortly before incubation in the cell incubator for 6 hours. DMSO concentration was set to 0.2%. Medium is discarded by applying vacuum. For staining of cells medium was removed and cells washed once with 100 μl D-PBS (Sigma, #D8537). From next step onwards unless other stated assay volume was always 50 μl and incubation was performed without agitation and at room temperature. Cells were fixed in 50 μl of a 4% paraformaldehyde (PFA, Alpha aesar, #043368) PBS solution for 15 minutes at room temperature. […] Before analysis samples were washed 2 times manually for 5 minutes in ICC base buffer.
Imaging is performed using Perkin Elmer Phenix Opera using a water 20× objective and recording 9 fields per well. Intensity readout at 488 nm is used as a measure of O-GlcNAcylation level of total proteins in wells. To assess potential toxicity of compounds nuclei were counted using the Hoechst staining. IC50-values are calculated using parametric non-linear regression model fitting. As a maximum inhibition Thiamet G at a 200 uM concentration is present on each plate. In addition, a concentration response of Thiamet G is calculated on each plate.

The mark [2] stands for this setting: Enzymatic protocol A (10 nM OGA, 1 h), read-out: Enzymatic Emax (%).
The mark [3] stands for this setting: Enzymatic protocol A (10 nM OGA, 1 h), read-out: Enzymatic hOGA, pIC50 (converted).
The mark [4] stands for this setting: Enzymatic protocol B (2 nM OGA, 6 h), read-out: Enzymatic Emax (%).
[5] abbreviates: Enzymatic protocol B (2 nM OGA, 6 h), read-out: Enzymatic hOGA, pIC50 (converted).
The mark [6] stands for this setting: comparative table, protocol not given, read-out: Emax (OGA inhibitory activity, comparison with 1,4-disubstituted piperidine comparator).
Where [7] appears, read: comparative table, protocol not given, read-out: pIC50 (OGA inhibitory activity, comparison with 1,4-disubstituted piperidine comparator) (converted).

For `CC(=O)Nc1ncc(CN2CC[C@@H](C)[C@H](c3cc4ncccc4[nH]3)C2)s1` (racemic) [Compound 22], the Emax was 101% in assay [1] (setting [2]), 102% in assay [1] (setting [4]) and 114% at OGA. Moreover, the values for the IC50 in assay [1] (setting [3]) and in assay [1] (setting [5]) were 41.7 nM and 22.4 nM, respectively. Moreover, the EC50 on OGA is 20.9 nM.

In the case of `CC(c1ccc2c(c1)OCCO2)N1CCCC(c2cc3ncccc3[nH]2)C1` (racemic) [Compound 33], the Emax in assay [1] (setting [4]) worked out at 98.6%. Further, the IC50 in assay [1] (setting [5]) was 55 nM. On OGA, the maximal response (Emax) was 107% and the EC50 was 417 nM.

Consider `CC(=O)Nc1ncc(S(=O)(=O)N2CCCC(c3cc4ncccc4[nH]3)C2)s1` (single isomer, unassigned) [Compound 4], for which the maximal response (Emax) was found to be 99.7% in assay [1] (setting [2]), 99.4% in assay [1] (setting [4]) and 44.3% at OGA. The figures for the IC50 in assay [1] (setting [3]) and in assay [1] (setting [5]) were 178 nM and 186 nM, respectively. Moreover, the EC50 at OGA is above 10000 nM.

For the compound `CC(=O)Nc1ncc(CN2CCCC(c3cc4ncccc4[nH]3)C2)s1` (single isomer, unassigned) [Compound 6], the maximal response (Emax) in assay [1] (setting [2]) was found to be 92.3%; in assay [1] (setting [4]) it was 79.1%; on OGA, 66.6%. The results for the IC50 in assay [1] (setting [3]) and in assay [1] (setting [5]) were 1660 nM and 2690 nM, respectively. Further, the EC50 at OGA is 3630 nM.

In the case of `CC(=O)Nc1ncc(CN2CCC[C@H](c3cc4ncccc4[nH]3)C2)s1` (single isomer, unassigned) [Compound 7], the maximal effect (Emax) was 104% in assay [1] (setting [2]), 100% in assay [1] (setting [4]), 104% in assay [1] (setting [6]) and 114% on OGA. Also, the IC50 in assay [1] (setting [3]) is 18.2 nM; in assay [1] (setting [5]), 25.1 nM; in assay [1] (setting [7]), 18.2 nM. In assay [1] (greater than the corresponding 1,4-disubstituted piperidine compound (comparator)), the “OGA inhibitory activity compared with comparator” value was ~1 order of magnitude. For the same compound, at OGA, the EC50 was 21.4 nM.

With `CC(c1ccc2c(c1)OCO2)N1CCCC(c2cc3ncccc3[nH]2)C1` (single isomer, unassigned) [Compound 31], the “Enzymatic Emax (%)” value in assay [1] (Enzymatic protocol B (2 nM OGA, 6 h)) was determined as 100.4%. The IC50 in assay [1] (setting [5]) is 26.9 nM. For the same compound, on OGA, the Emax was found to be 95.8% and the EC50 is 195 nM.

In the case of `CC(=O)Nc1ncc(CN2CCCC(c3cc4cccnc4[nH]3)C2)s1` (centres unmarked) [Compound 8], the Emax was found to be 101% in assay [1] (setting [2]), 100% in assay [1] (setting [4]) and 113% at OGA. For the same compound, the IC50 was 112 nM in assay [1] (setting [3]) and 105 nM in assay [1] (setting [5]). The EC50 at OGA is 148 nM.

Regarding `CC(=O)Nc1ncc(CN2CCCC(c3cc4ccncc4[nH]3)C2)s1` (centres unmarked) [Compound 11], in assay [1] (setting [4]), the maximal effect (Emax) amounted to 100%. In addition, the IC50 in assay [1] (setting [5]) was 74.1 nM. In addition, on OGA, the Emax is 103% and the EC50 was 18.2 nM.

Take `CC(=O)Nc1ncc(CN2CCCC(c3cc4cnccc4[nH]3)C2)s1` (centres unmarked) [Compound 12]: the Emax in assay [1] (setting [4]) was 124%. Besides, the IC50 in assay [1] (setting [5]) was 42.7 nM. For the same compound, on OGA, the maximal effect (Emax) amounted to 120% and the EC50 is 17.8 nM.

Regarding `CC(=O)Nc1ncc(CN2CCCC(c3nc4ncccc4n3C)C2)s1` (centres unmarked) [Compound 20], the maximal effect (Emax) in assay [1] (setting [2]) amounted to 98%. The IC50 in assay [1] (setting [3]) is 155 nM. Besides, on OGA, the Emax came to 95.6% and the EC50 was 2630 nM.

In the case of `CC(=O)Nc1ncc(CN2CCCC(c3nc4cccnc4n3C)C2)s1` (centres unmarked) [Compound 21], the maximal effect (Emax) in assay [1] (setting [2]) was determined as 101%. For the same compound, the IC50 in assay [1] (setting [3]) is 302 nM. Also, at OGA, the Emax came to 101% and the EC50 is 2630 nM.

Regarding `CC(=O)Nc1ncc(CN2CCC(Cc3cc4ncccc4[nH]3)C2)s1` (centres unmarked) [Compound 24], the Emax in assay [1] (setting [4]) amounted to 99.8%; at OGA, 98%. In addition, in assay [1] (setting [5]), the IC50 is 2.14 nM. On OGA, the EC50 was 7.94 nM.

Regarding `CC(=O)Nc1ncc(CN2CCC(Cc3cc4ncccc4n3C)C2)s1` (centres unmarked) [Compound 25], the maximal response (Emax) was 102% in assay [1] (setting [4]) and 121% at OGA. In assay [1] (setting [5]), the IC50 is 1.51 nM. At OGA, the EC50 was 9.33 nM.

For `CC(=O)Nc1ncc(CN2CCCC(Cc3cc4ncccc4n3C)C2)s1` (centres unmarked) [Compound 26], the results for the maximal response (Emax) (in assay [1] (setting [4]); at OGA) were 101% and 118%, respectively. In addition, the IC50 in assay [1] (setting [5]) is 2.4 nM. Besides, on OGA, the EC50 was below 4.57 nM.

Regarding `CC(=O)Nc1ncc(CN2CCC(c3cc4ncccc4[nH]3)CC2)s1` [comparator, reference compound], in assay [1] (setting [6]), the maximum response (Emax) worked out at 103%. For the same compound, the IC50 in assay [1] (setting [7]) is 224 nM.
